Results reported in US20030091620A1, “Transdermal drug delivery systems containing quaternary ammonium salts and methods of using the same” (priority 1999, published 2003).
Read-outs that look alike come from different tables or passages of the source.

Tests used:
[1] = tested on: bacterial count on the skin; conditions: cited from earlier work
[2] = in vivo; cited from earlier work
E3 organism [3] = experiment: Zone of Inhibition testing of antimicrobial-loaded transdermal matrix disks; assay type: cell-based, gram-positive, coagulase-negative cocci
Experimental: These patches were cut into 1 cm^2 disks and subjected to Zone of Inhibition testing against the E3 organism with 24-hour incubation.
In the next experiment, placebo matrix patches (18 cm^2 area) were manufactured for a clinical wear study.

E3 organism [4] = experiment: Zone of Inhibition testing of paper discs saturated with aqueous antimicrobial solutions; assay type: cell-based, gram-positive, coagulase-negative cocci
Experimental: In this experiment, the effectiveness of various topical antimicrobial agents against the E3 organism was determined using Zone of Inhibition testing of paper discs saturated with aqueous antimicrobial solutions.

[5] = In vitro skin flux from PSA matrix patches and hydroalcoholic gels (modified Franz diffusion cells); conditions: 24-hour skin flux of the drug from Morstick 214 PSA patch with 1% BzthCl, relative to 0% enhancer
Experimental: In vitro skin flux studies were conducted on epidermal membranes (stratum corneum and epidermis) obtained from whole human cadaver skin (epidermal membrane and dermis) by the heat-separation method of Kligman & Christopher, 88 Arch. […] This method consists of immersion of the whole skin for 60 seconds in water at 60° C., followed by mechanical separation of the epidermal and dermal layers. After separation, the epidermal membrane is stored in aluminum foil at −5° C. until use.
Skin flux experiments were conducted in two-compartment glass diffusion cells with a modified Franz design. The receiver compartment was filled with water or an aqueous buffer appropriate to maintain sink conditions for the drug. All receiver media included 0.02% (w/w) sodium azide to inhibit bacterial growth. […]
At predetermined sampling intervals, the entire volume of the receiver compartment solution was collected for drug quantification, and the receiver compartment was filled with fresh receiver solution, taking care to eliminate any air bubbles at the skin/solution interface.
Receiver solution samples were analyzed for drug content by HPLC with external standards of known drug concentration used for calibration. The cumulative amount of drug permeated per unit area at any time t (Qt, μg/cm^2) was determined according to the following equation: [formula] […]

[6] = aqueous solution 2.0% w/w on 0.33 cm^2 paper disks, read-out: Zone of Inhibition

| Molecule | time required for the bacterial count on the skin to be decreased by 50% [1] [s] | time required to effect a 90% reduction of bacterial count [1] [min] | zone of inhibition at 2 % strength (E3 organism [4]; [6]) [mm] | other results |
| --- | --- | --- | --- | --- |
| CCO [70% ethanol, ethanol] | 36 | 2 |  |  |
| benzalkonium chloride | 420 | 25 |  | skin irritation [2]: severe irritation; Zone of Inhibition (E3 organism [3]; 0.4% w/w in DuroTak 87-2888 adhesive matrix disks, 24-hour incubation): 15 mm; Zone of Inhibition (E3 organism [4]; aqueous solution 0.4% w/w on 0.33 cm^2 paper disks): 13 mm |
| OCc1ccccc1 [Benzyl Alcohol] |  |  | 10 |  |
| O=C(O)c1ccccc1 [Benzoic Acid] |  |  |  | zone of inhibition at 0.4 % strength (E3 organism [3]; 24 h): < 0 mm; zone of inhibition at 2 % strength (E3 organism [4]): 10 mm |
| COC(=O)c1ccc(O)cc1 [Methyl Paraben] |  |  | 0 |  |
| Cl.O=C1CC2(CCCC2)CC(=O)N1CCCCN1CCN(c2ncccn2)CC1 [Buspirone HCI] |  |  |  | % Increase in Q24 [5]: 38 (21%) |
